Experimental data from patent US20100144733A1, “Compounds, compositions and methods comprising heteroaromatic derivatives” (Institute for OneWorld Health, priority 2008, published 2010).

How the values were obtained:
CHO-CFTR cell line = target: T1, CHO-CFTR cell line (Homo sapiens, UniProt P13569); assay: CHO-CFTR assay (FLIPR assay, same conditions as the T84 assay); format: cell-based; details: imidazole and triazole-containing compounds
T1 construct: expressed in transfected cells; host or cells: CHO (CHO-CFTR cell line)

CFTR = target: T2, CFTR (Homo sapiens, UniProt P13569); assay: T84 assay (FLIPR membrane potential dye, forskolin/IBMX-stimulated CFTR channel activity); format: cell-based; details: imidazole and triazole-containing compounds (Tables 13, 14, 14′), read-out: IC50 (μM) (T84 assay)
T2 construct: endogenous in cells; host or cells: T84 human colonic cells (ECACC)
Summary of the method: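 Fluorescence from a membrane potential dye in T84 monolayers (HBSS with 10 mM Hepes) is followed each second for 150 s. Cells are exposed to test compound during the 45 min dye loading, then challenged with forskolin (10 μM) and IBMX (100 μM) to open CFTR. Inhibitors suppress the depolarization-driven fluorescence increase.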

T2 sequence (P13569 whole entry): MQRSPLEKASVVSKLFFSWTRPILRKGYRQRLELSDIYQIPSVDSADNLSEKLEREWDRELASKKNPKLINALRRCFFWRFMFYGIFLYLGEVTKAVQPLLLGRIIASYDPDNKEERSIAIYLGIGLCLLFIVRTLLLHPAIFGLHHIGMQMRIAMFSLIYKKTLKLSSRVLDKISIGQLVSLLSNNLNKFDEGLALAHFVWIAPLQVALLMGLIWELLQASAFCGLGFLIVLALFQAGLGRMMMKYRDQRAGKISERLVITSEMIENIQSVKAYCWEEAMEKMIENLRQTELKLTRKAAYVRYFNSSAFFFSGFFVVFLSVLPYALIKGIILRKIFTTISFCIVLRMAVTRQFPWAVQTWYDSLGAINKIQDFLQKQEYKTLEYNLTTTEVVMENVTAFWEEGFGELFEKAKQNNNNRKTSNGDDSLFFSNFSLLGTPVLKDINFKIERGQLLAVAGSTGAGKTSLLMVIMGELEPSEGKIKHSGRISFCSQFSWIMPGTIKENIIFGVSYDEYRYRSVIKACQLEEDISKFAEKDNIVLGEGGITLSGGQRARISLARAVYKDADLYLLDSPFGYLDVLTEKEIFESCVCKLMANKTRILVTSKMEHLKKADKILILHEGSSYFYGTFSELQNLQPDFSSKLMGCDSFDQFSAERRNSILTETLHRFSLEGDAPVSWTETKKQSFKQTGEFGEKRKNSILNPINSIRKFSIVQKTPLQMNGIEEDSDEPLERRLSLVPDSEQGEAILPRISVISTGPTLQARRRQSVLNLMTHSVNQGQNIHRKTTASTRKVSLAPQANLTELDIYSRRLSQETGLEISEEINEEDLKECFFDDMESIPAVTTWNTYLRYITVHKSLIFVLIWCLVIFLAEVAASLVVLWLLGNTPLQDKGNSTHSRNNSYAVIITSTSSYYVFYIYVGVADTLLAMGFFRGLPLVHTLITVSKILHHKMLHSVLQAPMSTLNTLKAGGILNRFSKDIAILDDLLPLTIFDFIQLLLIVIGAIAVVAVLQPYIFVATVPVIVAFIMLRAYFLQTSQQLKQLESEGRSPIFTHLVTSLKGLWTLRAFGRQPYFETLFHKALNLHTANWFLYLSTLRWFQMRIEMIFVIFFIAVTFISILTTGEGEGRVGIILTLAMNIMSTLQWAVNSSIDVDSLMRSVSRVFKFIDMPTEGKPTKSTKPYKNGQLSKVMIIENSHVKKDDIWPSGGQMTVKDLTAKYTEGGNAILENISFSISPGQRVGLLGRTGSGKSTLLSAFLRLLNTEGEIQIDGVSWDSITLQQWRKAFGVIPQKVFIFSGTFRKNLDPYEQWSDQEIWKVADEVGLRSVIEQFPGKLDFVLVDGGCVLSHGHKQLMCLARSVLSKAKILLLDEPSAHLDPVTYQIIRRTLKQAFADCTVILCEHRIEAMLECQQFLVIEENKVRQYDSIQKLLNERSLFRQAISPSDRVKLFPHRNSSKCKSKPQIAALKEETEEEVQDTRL
T1 sequence (P13569 whole entry): as above

SMILES | IC50 (CHO-CFTR cell line) | IC50 (CFTR)
CC(C)(C)c1ccc(C(O)(c2ccc(C(C)(C)C)cc2)c2ncn(-c3cc(Cl)c(O)c(Cl)c3)n2)cc1 [58i, 4-(3-(bis(4-tert-butylphenyl)(hydroxy)methyl)-1H-1,2,4-triazol-1-yl)-2,6-dichlorophenol] | 17 µM | 11.3 µM
Oc1c(Cl)cc(-n2cnc(C(O)(c3cccc(F)c3)c3cccc(F)c3)n2)cc1Cl [54i, 4-(3-(bis(3-fluorophenyl)(hydroxy)methyl)-1H-1,2,4-triazol-1-yl)-2,6-dichlorophenol] | 22.7 µM | 22.9 µM
O=C(NCc1ccc(F)c(Cl)c1)c1ncn(-c2cc(Cl)c(O)c(Cl)c2)n1 [23i, N-(3-chloro-4-fluorobenzyl)-1-(3,5-dichloro-4-hydroxyphenyl)-1H-1,2,4-triazole-3-carboxamide] | 12.5 µM | 7.39 µM
O=C(NCCC(c1ccccc1)c1ccccc1)c1ncn(-c2cc(Cl)c(O)c(Cl)c2)n1 [31i, 1-(3,5-dichloro-4-hydroxyphenyl)-N-(3,3-diphenylpropyl)-1H-1,2,4-triazole-3-carboxamide] | 12.9 µM | 1.67 µM
O=C(NCc1cc(C(F)(F)F)ccc1F)c1ncn(-c2cc(Cl)c(O)c(Cl)c2)n1 [40i, 1-(3,5-dichloro-4-hydroxyphenyl)-N-(2-fluoro-5-(trifluoromethyl)benzyl)-1H-1,2,4-triazole-3-carboxamide] | 28.6 µM | 2.86 µM
Oc1c(Cl)cc(-n2cnc(C(O)(Cc3ccc(F)cc3)Cc3ccc(F)cc3)n2)cc1Cl [56i, 4-(3-(1,3-bis(4-fluorophenyl)-2-hydroxypropan-2-yl)-1H-1,2,4-triazol-1-yl)-2,6-dichlorophenol] | 25.5 µM | 20.4 µM
CN(C)c1ccc(Oc2ccc(CNC(=O)c3ncn(-c4cc(Cl)c(O)c(Cl)c4)n3)cc2)cc1 [63i, 1-(3,5-dichloro-4-hydroxyphenyl)-N-(4-(4-(dimethylamino)phenoxy)benzyl)-1H-1,2,4-triazole-3-carboxamide] | 6.72 µM | 3.02 µM
O=C(NCc1cc(F)cc(C(F)(F)F)c1)c1ncn(-c2cc(Cl)c(O)c(Cl)c2)n1 [24i, 1-(3,5-dichloro-4-hydroxyphenyl)-N-(3-fluoro-5-(trifluoromethyl)benzyl)-1H-1,2,4-triazole-3-carboxamide] | 15.2 µM | 4.93 µM
CCN(Cc1ccc(Oc2ccccc2)cc1)C(=O)c1ncn(-c2cc(Cl)c(O)c(Cl)c2)n1 [86i, 1-(3,5-dichloro-4-hydroxyphenyl)-N-ethyl-N-(4-phenoxybenzyl)-1H-1,2,4-triazole-3-carboxamide] | 28.9 µM | 1.81 µM
O=C(NCc1cccc(OC(F)(F)F)c1)c1ncn(-c2cc(Cl)c(O)c(Cl)c2)n1 [3i, 1-(3,5-dichloro-4-hydroxyphenyl)-N-(3-(trifluoromethoxy)benzyl)-1H-1,2,4-triazole-3-carboxamide] | 3.37 µM | 7.14 µM
CC(C)(C)c1ccc(CN(Cc2cccnc2)C(=O)c2ncn(-c3cc(Cl)c(O)c(Cl)c3)n2)cc1 [93i, N-(4-tert-butylbenzyl)-1-(3,5-dichloro-4-hydroxyphenyl)-N-(pyridin-3-ylmethyl)-1H-1,2,4-triazole-3-carboxamide] | 4.67 µM | 1.19 µM
O=C(NCc1ccc(Oc2ccc(F)c(C(F)(F)F)c2)cc1)c1ncn(-c2cc(Cl)c(O)c(Cl)c2)n1 [67i, 1-(3,5-dichloro-4-hydroxyphenyl)-N-(4-(4-fluoro-3-(trifluoromethyl)phenoxy)benzyl)-1H-1,2,4-triazole-3-carboxamide] | 14.7 µM | 6.4 µM
O=C(NCc1ccc(Oc2ccc(OCc3ccccc3)c(Cl)c2)cc1)c1ncn(-c2cc(Cl)c(O)c(Cl)c2)n1 [72i, N-(4-(4-(benzyloxy)-3-chlorophenoxy)benzyl)-1-(3,5-dichloro-4-hydroxyphenyl)-1H-1,2,4-triazole-3-carboxamide] | 12.3 µM | 7.6 µM
Oc1c(Cl)cc(-n2cnc(C(O)(c3cc(F)cc(Cl)c3)c3cc(F)cc(Cl)c3)n2)cc1Cl [57i, 4-(3-(bis(3-chloro-5-fluorophenyl)(hydroxy)methyl)-1H-1,2,4-triazol-1-yl)-2,6-dichlorophenol] | 3.88 µM | 14.7 µM
CC(C)(C)C(=O)CN(Cc1ccc(C(C)(C)C)cc1)C(=O)c1ncn(-c2cc(Cl)c(O)c(Cl)c2)n1 [50i, N-(4-tert-butylbenzyl)-1-(3,5-dichloro-4-hydroxyphenyl)-N-(3,3-dimethyl-2-oxobutyl)-1H-1,2,4-triazole-3-carboxamide] | 18.5 µM | 1.16 µM
CC(C)(C)CCN(Cc1ccccc1)C(=O)c1ncn(-c2cc(Cl)c(O)c(Cl)c2)n1 [60i, N-Benzyl-1-(3,5-dichloro-4-hydroxyphenyl)-N-(3,3-dimethylbutyl)-1H-1,2,4-triazole-3-carboxamide] | 5.45 µM | 16.2 µM
CC(C)c1ccc(CN(Cc2ccccc2)C(=O)c2ncn(-c3cc(Cl)c(O)c(Cl)c3)n2)cc1 [81i, N-benzyl-1-(3,5-dichloro-4-hydroxyphenyl)-N-(4-isopropylbenzyl)-1H-1,2,4-triazole-3-carboxamide] | 16.5 µM | 1.26 µM
O=C(NCc1ccc(Oc2ccc(OCc3ccccc3)c(F)c2)cc1)c1ncn(-c2cc(Cl)c(O)c(Cl)c2)n1 [71i, N-(4-(4-(benzyloxy)-3-fluorophenoxy)benzyl)-1-(3,5-dichloro-4-hydroxyphenyl)-1H-1,2,4-triazole-3-carboxamide] | 31 µM | 8.06 µM
C=CCN(Cc1ccc(C(C)(C)C)cc1)C(=O)c1ncn(-c2cc(Cl)c(O)c(Cl)c2)n1 [51i, N-allyl-N-(4-tert-butylbenzyl)-1-(3,5-dichloro-4-hydroxyphenyl)-1H-1,2,4-triazole-3-carboxamide] | 5.13 µM | 0.63 µM

Continued, values first:

IC50 (CHO-CFTR cell line) | IC50 (CFTR) | SMILES
26.1 µM | 12.5 µM | COCCOCCOCCOCCN(Cc1ccc(Oc2ccccc2)cc1)C(=O)c1ncn(-c2cc(Cl)c(O)c(Cl)c2)n1 [112i, 1-(3,5-dichloro-4-hydroxyphenyl)-N-(4-phenoxybenzyl)-N-(2,5,8,11-tetraoxatridecan-13-yl)-1H-1,2,4-triazole-3-carboxamide]
22.7 µM | 6.63 µM | COCCOCCOCCN(Cc1ccc(Cl)c(Cl)c1)C(=O)c1ncn(-c2cc(Cl)c(O)c(Cl)c2)n1 [114i, 1-(3,5-dichloro-4-hydroxyphenyl)-N-(3,4-dichlorobenzyl)-N-(2-(2-(2-methoxyethoxy)ethoxy)ethyl)-1H-1,2,4-triazole-3-carboxamide]
11.3 µM | 3.64 µM | CC(C)(C)CCN(Cc1ccc(Oc2ccccc2)cc1)C(=O)c1ncn(-c2cc(Cl)c(O)c(Cl)c2)n1 [105i, 1-(3,5-dichloro-4-hydroxyphenyl)-N-(3,3-dimethylbutyl)-N-(4-phenoxybenzyl)-1H-1,2,4-triazole-3-carboxamide]
13.1 µM | 1.8 µM | CC(C)(C)CCN(Cc1ccc(C(C)(C)C)cc1)C(=O)c1ncn(-c2cc(Cl)c(O)c(Cl)c2)n1 [106i, N-(4-tert-butylbenzyl)-1-(3,5-dichloro-4-hydroxyphenyl)-N-(3,3-dimethylbutyl)-1H-1,2,4-triazole-3-carboxamide]
2.46 µM | 2.43 µM | CON(Cc1ccc(Cl)c(Cl)c1)C(=O)c1ncn(-c2cc(Cl)c(O)c(Cl)c2)n1 [126i, 1-(3,5-dichloro-4-hydroxyphenyl)-N-(3,4-dichlorobenzyl)-N-methoxy-1H-1,2,4-triazole-3-carboxamide]
10.2 µM | 3.06 µM | O=C(c1ncn(-c2cc(Cl)c(O)c(Cl)c2)n1)N(Cc1cccnc1)Cc1ccc(Cl)c(Cl)c1 [109i, 1-(3,5-dichloro-4-hydroxyphenyl)-N-(3,4-dichlorobenzyl)-N-(pyridin-3-ylmethyl)-1H-1,2,4-triazole-3-carboxamide]
41.9 µM | 5.83 µM | C=CCN(Cc1cccc(C(F)(F)F)c1)C(=O)c1ncn(-c2cc(Cl)c(O)c(Cl)c2)n1 [104i, N-allyl-1-(3,5-dichloro-4-hydroxyphenyl)-N-(3-(trifluoromethyl)benzyl)-1H-1,2,4-triazole-3-carboxamide]
2.69 µM | 1.85 µM | C=CCN(Cc1ccc(Cl)c(Cl)c1)C(=O)c1ncn(-c2cc(Cl)c(O)c(Cl)c2)n1 [102i, N-allyl-1-(3,5-dichloro-4-hydroxyphenyl)-N-(3,4-dichlorobenzyl)-1H-1,2,4-triazole-3-carboxamide]
6.03 µM | 8.22 µM | CON(Cc1cccc(C(F)(F)F)c1)C(=O)c1ncn(-c2cc(Cl)c(O)c(Cl)c2)n1 [124i, 1-(3,5-dichloro-4-hydroxyphenyl)-N-methoxy-N-(3-(trifluoromethyl)benzyl)-1H-1,2,4-triazole-3-carboxamide]
11.5 µM | 5.11 µM | COCCOCCOCCN(Cc1ccc(Oc2ccccc2)cc1)C(=O)c1ncn(-c2cc(Cl)c(O)c(Cl)c2)n1 [119i, 1-(3,5-dichloro-4-hydroxyphenyl)-N-(2-(2-(2-methoxyethoxy)ethoxy)ethyl)-N-(4-phenoxybenzyl)-1H-1,2,4-triazole-3-carboxamide]
4.08 µM | 2.99 µM | CCN(Cc1ccc(Cl)c(Cl)c1)C(=O)c1ncn(-c2cc(Cl)c(O)c(Cl)c2)n1 [108i, 1-(3,5-dichloro-4-hydroxyphenyl)-N-(3,4-dichlorobenzyl)-N-ethyl-1H-1,2,4-triazole-3-carboxamide]
4.09 µM | 2.84 µM | CCON(Cc1ccc(Oc2ccccc2)cc1)C(=O)c1ncn(-c2cc(Cl)c(O)c(Cl)c2)n1 [130i, 1-(3,5-dichloro-4-hydroxyphenyl)-N-ethoxy-N-(4-phenoxybenzyl)-1H-1,2,4-triazole-3-carboxamide]
